According to patent US7498353B2, “Heterocyclic anti-viral compounds comprising metabolizable moieties and their uses” (priority 2005, dated 2009):

What follows are compounds tested on HCV NS5A protein in 9-13 replicon cells (assay: Quantitative Western blot replicon assay (HEPC_REPLICON-ICWESTERN)). Settings: Hepatitis C virus, read-out: HEPC_REPLICON-ICWESTERN Result Value (IC50).
Type: cell-based, Hepatitis C virus (HCV)
Procedure: Alternatively, the inhibitory activity of the metabolically active agents of the prodrugs can be confirmed using a quantitative Western immunoblot assay utilizing antibodies specific for HCV non-structural proteins, such as NS3, NS4A NS5A and NS5B. In one embodiment of this assay, replicon cells are treated with varying concentrations of test prodrug to determine the concentration of the metabolically active agent of the test prodrug that yields a 50% reduction in the amount of a non-structural protein produced as compared to a control sample (IC50). A single non-structural protein may be quantified or multiple non-structural proteins may be quantified. Antibodies suitable for carrying out such immunoblot assays are available commercially (e.g., from BIODESIGN International, Saco, Me.).
Certain prodrugs of the invention, which may inhibit HCV translation or replication prior to metablism and/or are metabolized into active agents, were also tested for their ability to inhibit HCV replication using a quantitative Western blot analysis with antibodies specific for the HCV NS5A or other non-structural proteins. Actively dividing 9-13 replicon cells were seeded into 6-well plates at a density of 1×10^5 cells/well in a volume of 2 ml/well and incubated at 37° C. and 5% CO2 for 24 hours. Various concentrations of test prodrugs (in a volume of 10 ul) were added to the wells and the cells incubated for another 48 hours. Protein samples were prepared from the cultured cells, resolved on a SDS-PAGE gel and transferred to a nitrocellulose membrane. The membrane was blocked with 5% non-fat milk in PBS for 1 hour at room temperature. Primary antibody (anti NS5A antibody; BIODESIGN International, Saco, Me.) incubation was performed for 1 hour at room temperature, after which the membrane was washed 3 times (for 15 min per time) with PBST (PBS plus 0.1% Tween 20). Horseradish peroxidase conjugated secondary antibody incubation was performed for 1 hour at room temperature and the membrane was washed 3 times (for 15 min per time) with PBST. The membrane was then soaked in substrate solution (Pierce) and exposed to a film or quantified using an imager. In this assay, the amount of test prodrug that is believed to be transformed into an active agent under the given conditions that yielded a 50% reduction in the amount of NS5A protein translated as compared to a control sample (IC50) was determined.

| SMILES | IC50 [µM] |
| --- | --- |
| CCOP(=O)(CCC(=O)CCN(C(=O)C(Cl)Cl)c1ccnc(-c2cc(-c3c(Cl)cccc3Cl)no2)c1)OCC [Cpd. No. 11, Diethyl 5-(2,2-Dichloro-N-(2-(3-(2,6-dichlorophenyl)isoxazol-5-yl)pyridin-4-yl)acetamido)-3-oxopentylphosphonate] | < 1 |

Same assay, conditions: Hepatitis C virus; 9-13 replicon cells, 50% reduction in NS5A protein; read-out: HEPC_REPLICON-ICWESTERN Result Value (IC50)

| SMILES | IC50 [µM] |
| --- | --- |
| NC(CCC(=O)O)C(=O)CCN(C(=O)C(Cl)Cl)c1ccnc(-c2cc(-c3c(Cl)cccc3Cl)no2)c1 (stereo not drawn) [Cpd. No. 4, 4-Amino-7-(2,2-dichloro-N-(2-(3-(2,6-dichlorophenyl)isoxazol-5-yl)pyridin-4-yl)acetamido)-5-oxoheptanoic Acid] | < 1 |
| CCOC(=O)CN(C(=O)C(Cl)Cl)c1ccnc(-c2cc(-c3c(Cl)cccc3Cl)no2)c1 [Cpd. No. 8, Ethyl 2-(2,2-Dichloro-N-(2-(3-(2,6-dichlorophenyl)isoxazol-5-yl)pyridin-4-yl)acetamido)acetate] | 1 to 20 |
| CCC(C)OCN(C(=O)C(Cl)Cl)c1ccnc(-c2cc(-c3c(Cl)cccc3Cl)no2)c1 (stereo not drawn) [Cpd. No. 10, N-(sec-Butoxymethyl)-2,2-dichloro-N-(2-(3-(2,6-dichlorophenyl)isoxazol-5-yl)pyridin-4-yl)acetamide] | 1 to 20 |
| COC(=O)CCN(C(=O)C(Cl)Cl)c1cccc(-c2cc(-c3c(Cl)cccc3Cl)no2)c1 [Cpd. No. 12, Methyl 3-(2,2-Dichloro-N-(3-(3-(2,6-dichlorophenyl)isoxazol-5-yl)phenyl)acetamido)propanoate] | > 20 |
| N#CCCN(C(=O)C(Cl)Cl)c1cccc(-c2cc(-c3c(Cl)cccc3Cl)no2)c1 [Cpd. No. 13, 2,2-Dichloro-N-(2-cyanoethyl)-N-(3-(3-(2,6-dichlorophenyl)isoxazol-5-yl)phenyl)acetamide] | > 20 |
| CC(C)(C)OC(=O)NCCN(C(=O)C(Cl)Cl)c1cccc(-c2cc(-c3c(Cl)cccc3Cl)no2)c1 [Cpd. No. 14, tert-Butyl 2-(2,2-Dichloro-N-(3-(3-(2,6-dichlorophenyl)isoxazol-5-yl)phenyl)acetamido)ethylcarbamate] | > 20 |
| CC(C)(C)OC(=O)N[C@H](C(=O)NCCN(C(=O)C(Cl)Cl)c1cccc(-c2cc(-c3c(Cl)cccc3Cl)no2)c1)c1ccccc1 [Cpd. No. 17, (S)-tert-Butyl 2-(2-(2,2-Dichloro-N-(3-(3-(2,6-dichlorophenyl)isoxazol-5-yl)phenyl)acetamido)ethylamino)-2-oxo-1-phenylethylcarbamate] | > 20 |
| N[C@@H](C(=O)NCCN(C(=O)C(Cl)Cl)c1cccc(-c2cc(-c3c(Cl)cccc3Cl)no2)c1)c1ccccc1 [Cpd. No. 20, (R)-N-(2-(2-Amino-2-phenylacetamido)ethyl)-2,2-dichloro-N-(3-(3-(2,6-dichlorophenyl)isoxazol-5-yl)phenyl)acetamide] | 1 to 20 |
| CC(C)[C@@H](CN(C(=O)C(Cl)Cl)c1cccc(-c2cc(-c3c(Cl)cccc3Cl)no2)c1)NC(=O)OC(C)(C)C [Cpd. No. 21, (S)-tert-Butyl 1-(2,2-Dichloro-N-(3-(3-(2,6-dichlorophenyl)isoxazol-5-yl)phenyl)acetamido)-3-methylbutan-2-ylcarbamate] | 1 to 20 |
| CC(C)[C@@H](CN(C(=O)C(Cl)Cl)c1cccc(-c2cc(-c3c(Cl)cccc3Cl)no2)c1)NC(=O)[C@@H](NC(=O)OC(C)(C)C)c1ccccc1 [Cpd. No. 22, tert-Butyl (S)-2-((S)-1-(2,2-Dichloro-N-(3-(3-(2,6-dichlorophenyl)isoxazol-5-yl)phenyl)acetamido)-3-methylbutan-2-ylamino)-2-oxo-1-phenylethylcarbamate] | 1 to 20 |
| CC(C)[C@@H](CN(C(=O)C(Cl)Cl)c1cccc(-c2cc(-c3c(Cl)cccc3Cl)no2)c1)NC(=O)[C@H](NC(=O)OC(C)(C)C)c1ccccc1 [Cpd. No. 23, tert-Butyl (R)-2-((S)-1-(2,2-Dichloro-N-(3-(3-(2,6-dichlorophenyl)isoxazol-5-yl)phenyl)acetamido)-3-methylbutan-2-ylamino)-2-oxo-1-phenylethylcarbamate] | 1 to 20 |
| CC(C)[C@@H](CN(C(=O)C(Cl)Cl)c1cccc(-c2cc(-c3c(Cl)cccc3Cl)no2)c1)NC(=O)C1CC(O)CN1C(=O)OC(C)(C)C (stereo partly drawn) [Cpd. No. 24, tert-Butyl 2-((S)-1-(2,2-Dichloro-N-(3-(3-(2,6-dichlorophenyl)isoxazol-5-yl)phenyl)acetamido)-3-methylbutan-2-ylcarbamoyl)-4-hydroxypyrrolidine-1-carboxylate] | 1 to 20 |
| CC(C)[C@@H](CN(C(=O)C(Cl)Cl)c1cccc(-c2cc(-c3c(Cl)cccc3Cl)no2)c1)NC(=O)CN(C)C(=O)OC(C)(C)C [Cpd. No. 25, (S)-tert-Butyl 2-(1-(2,2-Dichloro-N-(3-(3-(2,6-dichlorophenyl)isoxazol-5-yl)phenyl)acetamido)-3-methylbutan-2-ylamino)-2-oxoethyl(methyl)carbamate] | 1 to 20 |
| CC(C)[C@@H](CN(C(=O)C(Cl)Cl)c1cccc(-c2cc(-c3c(Cl)cccc3Cl)no2)c1)NC(=O)[C@H](CCC(=O)OC(C)(C)C)NC(=O)OC(C)(C)C [Cpd. No. 26, (S)-tert-Butyl 4-(tert-Butoxycarbonylamino)-5-((S)-1-(2,2-dichloro-N-(3-(3-(2,6-dichlorophenyl)isoxazol-5-yl)phenyl)acetamido)-3-methylbutan-2-ylamino)-5-oxopentanoate] | 1 to 20 |
| CC(C)(C)OC(=O)CC[C@H](NC(=O)OC(C)(C)C)C(=O)NCCN(C(=O)C(Cl)Cl)c1cccc(-c2cc(-c3c(Cl)cccc3Cl)no2)c1 [Cpd. No. 32, (S)-tert-Butyl 4-(tert-Butoxycarbonylamino)-5-(2-(2,2-dichloro-N-(3-(3-(2,6-dichlorophenyl)isoxazol-5-yl)phenyl)acetamido)ethylamino)-5-oxopentanoate] | > 20 |
| CC(C)(C)OC(=O)N1CC(O)C[C@H]1C(=O)NCCN(C(=O)C(Cl)Cl)c1cccc(-c2cc(-c3c(Cl)cccc3Cl)no2)c1 (stereo partly drawn) [Cpd. No. 33, (2S)-tert-Butyl 2-(2-(2,2-Dichloro-N-(3-(3-(2,6-dichlorophenyl)isoxazol-5-yl)phenyl)acetamido)ethylcarbamoyl)-4-hydroxypyrrolidine-1-carboxylate] | > 20 |
| O=C(NCCN(C(=O)C(Cl)Cl)c1cccc(-c2cc(-c3c(Cl)cccc3Cl)no2)c1)[C@@H]1CC(O)CN1 (stereo partly drawn) [Cpd. No. 34, (2S)-N-(2-(2,2-Dichloro-N-(3-(3-(2,6-dichlorophenyl)isoxazol-5-yl)phenyl)acetamido)ethyl)-4-hydroxypyrrolidine-2-carboxamide] | > 20 |
| N[C@@H](CCC(=O)O)C(=O)NCCN(C(=O)C(Cl)Cl)c1cccc(-c2cc(-c3c(Cl)cccc3Cl)no2)c1 [Cpd. No. 35, (S)-4-Amino-5-(2-(2,2-dichloro-N-(3-(3-(2,6-dichlorophenyl)isoxazol-5-yl)phenyl)acetamido)ethylamino)-5-oxopentanoic Acid] | > 20 |
| CNCC(=O)NCCN(C(=O)C(Cl)Cl)c1cccc(-c2cc(-c3c(Cl)cccc3Cl)no2)c1 [Cpd. No. 36, 2,2-Dichloro-N-(3-(3-(2,6-dichlorophenyl)isoxazol-5-yl)phenyl)-N-(2-(2-(methylamino)acetamido)ethyl)acetamide] | 1 to 20 |
| CC(C)[C@H](N)C(=O)NCCN(C(=O)C(Cl)Cl)c1cccc(-c2cc(-c3c(Cl)cccc3Cl)no2)c1 [Cpd. No. 37, (S)-2-Amino-N-(2-(2,2-dichloro-N-(3-(3-(2,6-dichlorophenyl)isoxazol-5-yl)phenyl)acetamido)ethyl)-3-methylbutanamide] | 1 to 20 |
